This is an account of results in patent US20220380370A1 (Goldfinch Bio, Inc., priority 2019, published 2022).

This assay has as its target T1, CB1 receptor (Homo sapiens, UniProt P21554).
T1 construct: Perkin Elmer (CB1-CHO cells); host or cells: Flp-In CHO cells or CB1-CHO cells, stably expressing
The experiment in a line: CB1 cAMP antagonist assay (LANCE Ultra cAMP kit). Type of assay: cell-based. The settings on record: CHO cells stably expressing the CB1 receptor; forskolin and agonist CP55940 at EC90. The text has this:
LANCE Ultra cAMP kit (Perkin Elmer) was used to quantitate the amount of 3′,5′-cyclic adenosine monophosphate (cAMP) produced in Flp-In CHO cells (Invitrogen) stably expressing the CB1 receptor, CB1-CHO cells (Perkin Elmer) stably expressing the CB1 receptor, or CB2-CHO cells (Perkin Elmer) stably expressing the CB2 receptor.
Forskolin was initially titrated to determine the response of the cells. The EC90 of forskolin was used for compound testing. CP55940 was titrated and used with EC90 of forskolin to determine the level of agonist stimulation. EC90 of the agonist was used for subsequent compound testing. For the CB1 assay, Forskolin (Sigma), CP55940 (Cayman Chemicals), and AM251 (MCE) were diluted in 100% DMSO, starting at 100 mM, 1 mM, and 1 mM respectively, in 3-fold serial dilutions. For the CB2 assay, Forskolin (Sigma), CP55940 (Cayman Chemicals), and AM630 (MCE) were diluted in 100% DMSO, starting at 100 mM, 1 mM, and 30 mM respectively, in 3-fold serial dilutions. Test compounds were diluted in 100% DMSO starting from 10 mM, 3-fold dilutions. The cAMP assay buffer contains 1× Hank's Buffered Saline Solution with Ca^2+ and Mg^2+ (Invitrogen), 5.3 mM HEPES (Invitrogen), 0.05% BSA, 0.5 mM IBMX (Sigma). For all assays, cells were harvested, counted, and diluted in cAMP assay buffer to 1×10^5 cells/mL. Only cells with viability >85% were used for the assay. Cells were seeded at 1000 cells/well in 384-well plates and 10 nL/well AM251 (for CB1), AM630 (for CB2) or test compound was added and incubated at 37° C. for 10 min. Then forskolin and agonist were added to reach their EC90 and incubated at 25° C. for 30 min. To detect the amount of cAMP produced, 5 μL of a 100× diluted stock of Eu-cAMP tracer and 5 μL of 200× diluted stock of Ulight-anti-cAMP were added to each well, and the plate incubated at 25° C. for 15 min. The FRET signal was read using an EnVision microplate reader (λex=320 nm, λem=615 nm and 665 nm). The results are expressed as % Inhibition, where % inhibition=100−100×(U−C2)/(C1−C2), where U is the FRET ratio (λem (665 nm)/λem (615 nm)) of sample, C1 is the average of the high controls (signal with no antagonist added), and C2 is the average of low controls (signal with the highest concentration of AM251 or AM630 antagonist). The IC50 is determined by fitting the percentage of inhibition as a function of compound concentrations with the Hill equation, using a 4-parameter fit in either XLfit or GraphPad Prism.
(In general: TR-FRET usually uses a lanthanide donor and a delayed reading to cut background.)

T1 sequence (P21554 whole entry): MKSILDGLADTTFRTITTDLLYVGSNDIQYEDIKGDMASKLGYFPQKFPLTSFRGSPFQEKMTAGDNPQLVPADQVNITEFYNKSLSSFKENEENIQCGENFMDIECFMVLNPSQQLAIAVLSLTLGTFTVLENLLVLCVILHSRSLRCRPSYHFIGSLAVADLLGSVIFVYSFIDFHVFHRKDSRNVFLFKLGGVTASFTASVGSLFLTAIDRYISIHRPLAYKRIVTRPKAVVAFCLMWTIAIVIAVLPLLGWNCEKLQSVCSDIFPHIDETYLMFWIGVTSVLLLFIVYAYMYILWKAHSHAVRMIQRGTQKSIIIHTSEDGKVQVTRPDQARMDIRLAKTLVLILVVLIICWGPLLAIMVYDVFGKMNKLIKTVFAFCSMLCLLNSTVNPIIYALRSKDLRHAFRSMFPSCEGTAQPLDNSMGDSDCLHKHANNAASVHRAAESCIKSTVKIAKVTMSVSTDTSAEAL

As for `NC(=O)Cn1c(=O)c2c(nc(-c3ccc(F)cc3F)n2-c2ccc(Cl)cc2)n(CC2CCS(=O)(=O)CC2)c1=O` [Compound 172, 2-[7-(4-chlorophenyl)-8-(2,4-difluorophenyl)-3-[(1,1-dioxo-1λ^6-thian-4-yl)methyl]-2,6-dioxopurin-1-yl]acetamide], the half-maximal inhibitory concentration (IC50) (commonly the midpoint of a concentration-inhibition curve) is 100 to 1000 nM.

In the case of `CN1CCC(Cn2c(=O)n(C)c(=O)c3c2nc(-c2ccccc2Cl)n3-c2ccc(Cl)cc2)CC1` [Compound 116, 8-(2-chlorophenyl)-7-(4-chlorophenyl)-1-methyl-3-[(1-methylpiperidin-4-yl)methyl]-2,3,6,7-tetrahydro-1H-purine-2,6-dione], the half-inhibitory concentration (IC50) was at least 5000 nM. In turn, `C[C@H](C(N)=O)n1c(=O)c2c(nc(-c3ccccc3Cl)n2-c2ccc(Cl)cc2)n(C2CCOCC2)c1=O` [Compound 137] had an IC50 of 100 to 1000 nM. Next, `NC(=O)Cn1c(=O)c2c(nc(-c3ccccc3Cl)n2-c2ccc(Cl)cc2)n(CC2COCCO2)c1=O` (stereo in doubt) [Compound 127, 2-[8-(2-chlorophenyl)-7-(4-chlorophenyl)-3-[(2R)-1,4-dioxan-2-ylmethyl]-2,6-dioxopurin-1-yl]acetamide]: 100 to 1000 nM; `Cn1nccc1-c1nc2c(c(=O)n(C)c(=O)n2Cc2ccc(S(N)(=O)=O)cn2)n1-c1ccc(Cl)cc1` [Compound 182, 6-[[7-(4-chlorophenyl)-1-methyl-8-(2-methylpyrazol-3-yl)-2,6-dioxopurin-3-yl]methyl]pyridine-3-sulfonamide]: 100 to 1000 nM.

`CC(C(N)=O)n1c(=O)c2c(nc(-c3ccccc3Cl)n2-c2ccc(Cl)cc2)n(CC2CCOCC2)c1=O` (stereo in doubt) [Compound 140, (2S)-2-[8-(2-chlorophenyl)-7-(4-chlorophenyl)-3-(oxan-4-ylmethyl)-2,6-dioxopurin-1-yl]propanamide] showed an IC50 of under 100 nM. Next, `Cn1c(=O)c2c(nc(-c3ccccc3Cl)n2-c2ccc(Cl)cc2)n(Cc2ccc(C(=O)O)cc2)c1=O` [Compound 111, 4-[[8-(2-chlorophenyl)-7-(4-chlorophenyl)-1-methyl-2,6-dioxo-2,3,6,7-tetrahydro-1H-purin-3-yl]methyl]benzoic acid]: 1000 to 5000 nM. Under `CS(=O)(=O)N1CCC(Cn2c(=O)n(CC(N)=O)c(=O)c3c2nc(-c2ccccc2Cl)n3-c2ccc(Cl)cc2)CC1` [Compound 158] stands under 100 nM; under `NC(=O)Cn1c(=O)c2c(nc(-c3ccccc3Cl)n2-c2ccc(Cl)cc2)n(Cc2ccc(S(N)(=O)=O)cc2)c1=O` [Compound 153], under 100 nM.

Turning to `Cn1c(=O)c2c(nc(-c3ccccc3Cl)n2-c2ccc(Cl)cc2)n(Cc2ccc(C(=O)NC3CCOC3)cn2)c1=O` (stereo not drawn) [Compound 167], the concentration for half-maximal inhibition (IC50) is under 100 nM. Next, `NC(=O)Cn1c(=O)c2c(nc(-c3ccccc3Cl)n2-c2ccc(Cl)cc2)n(CC2COCCO2)c1=O` (stereo in doubt) [Compound 128, 2-[8-(2-chlorophenyl)-7-(4-chlorophenyl)-3-[(2S)-1,4-dioxan-2-ylmethyl]-2,6-dioxopurin-1-yl]acetamide]: 100 to 1000 nM; `CN(CCO)Cc1ccc(Cn2c(=O)n(C)c(=O)c3c2nc(-c2ccccc2Cl)n3-c2ccc(Cl)cc2)cc1` [Compound 120]: 100 to 1000 nM; `C[C@@H](CO)NC(=O)c1ccc(Cn2c(=O)n(C)c(=O)c3c2nc(-c2ccccc2Cl)n3-c2ccc(Cl)cc2)nc1` [Compound 160]: under 100 nM. Under `Cn1c(=O)c2c(nc(-c3ccccc3Cl)n2-c2ccc(Cl)cc2)n(CC2CCN(CC(N)=O)CC2)c1=O` [Compound 115, 2-(4-[[8-(2-chlorophenyl)-7-(4-chlorophenyl)-1-methyl-2,6-dioxo-2,3,6,7-tetrahydro-1H-purin-3-yl]methyl]piperidin-1-yl)acetamide] stands 100 to 1000 nM; under `CS(=O)(=O)c1ccc(Cn2c(=O)n(CC(N)=O)c(=O)c3c2nc(-c2ccccc2Cl)n3-c2ccc(Cl)cc2)cc1` [Compound 155, 2-[8-(2-chlorophenyl)-7-(4-chlorophenyl)-3-[(4-methanesulfonylphenyl)methyl]-2,6-dioxopurin-1-yl]acetamide], under 100 nM; under `CC(=O)N1CCC(Cn2c(=O)n(C(C)C(N)=O)c(=O)c3c2nc(-c2ccccc2Cl)n3-c2ccc(Cl)cc2)CC1` (stereo not drawn) [Compound 129, 2-[3-[(1-acetylpiperidin-4-yl)methyl]-8-(2-chlorophenyl)-7-(4-chlorophenyl)-2,6-dioxopurin-1-yl]propanamide], 100 to 1000 nM. On to `CC(=O)N1CCC(Cn2c(=O)n(C)c(=O)c3c2nc(-c2ccccc2Cl)n3-c2ccc(Cl)cc2)CC1` [Compound 107, 3-[(1-acetylpiperidin-4-yl)methyl]-8-(2-chlorophenyl)-7-(4-chlorophenyl)-1-methylpurine-2,6-dione], for which the IC50 is under 100 nM. Under `CS(=N)(=O)c1ccc(Cn2c(=O)n(CC(N)=O)c(=O)c3c2nc(-c2ccccc2Cl)n3-c2ccc(Cl)cc2)cc1` (stereo not drawn) [Compound 156, 2-[8-(2-chlorophenyl)-7-(4-chlorophenyl)-3-([4-[imino(methyl)oxo-lambda6-sulfanyl]phenyl]methyl)-2,6-dioxopurin-1-yl]acetamide] stands under 100 nM; under `COCCOCc1ccc(Cn2c(=O)n(C)c(=O)c3c2nc(-c2ccccc2Cl)n3-c2ccc(Cl)cc2)cc1` [Compound 122, 8-(2-chlorophenyl)-7-(4-chlorophenyl)-3-([4-[(2-methoxyethoxy)methyl]phenyl]methyl)-1-methylpurine-2,6-dione], under 100 nM. Consider `NC(=O)Cn1c(=O)c2c(nc(-c3ccccc3Cl)n2-c2ccc(Cl)cc2)n(Cc2ccc(CC(O)CO)cc2)c1=O` (stereo in doubt) [Compound 146, 2-[8-(2-chlorophenyl)-7-(4-chlorophenyl)-3-([4-[(2S)-2,3-dihydroxypropyl]phenyl]methyl)-2,6-dioxopurin-1-yl]acetamide], for which the 50% inhibitory concentration (IC50) was in the range of 100 to 1000 nM.

`CC(C)(C)C(=O)OCn1c(=O)c2c(nc(-c3ccccc3Cl)n2-c2ccc(Cl)cc2)n(C2CCCCC2)c1=O` [Compound 102] showed an IC50 of under 100 nM. Next, `Cn1c(=O)c2c(nc(-c3ccccc3Cl)n2-c2ccc(Cl)cc2)n(Cc2ccc(Cl)cc2)c1=O` [Compound 109, 8-(2-chlorophenyl)-7-(4-chlorophenyl)-3-[(4-chlorophenyl)methyl]-1-methyl-2,3,6,7-tetrahydro-1H-purine-2,6-dione]: under 100 nM; `NC(=O)Cn1c(=O)c2c(nc(-c3ccccc3Cl)n2-c2ccc(Cl)cc2)n(Cc2ccc(CC3COCCO3)cc2)c1=O` (stereo not drawn) [Compound 143]: under 100 nM. Under `CC(=O)N1CCC(Cn2c(=O)n(C[C@@H](O)CO)c(=O)c3c2nc(-c2ccccc2Cl)n3-c2ccc(Cl)cc2)CC1` [Compound 130, (R)-3-[(1-acetylpiperidin-4-yl)methyl]-8-(2-chlorophenyl)-7-(4-chlorophenyl)-1-[2,3-dihydroxypropyl]purine-2,6-dione] stands 100 to 1000 nM. The molecule `CC(c1ccc(C(=O)NCCO)cc1)n1c(=O)n(C)c(=O)c2c1nc(-c1ccccc1Cl)n2-c1ccc(Cl)cc1` (stereo in doubt) [Compound 134, 4-[(1R)-1-[8-(2-chlorophenyl)-7-(4-chlorophenyl)-1-methyl-2,6-dioxopurin-3-yl]ethyl]-N-(2-hydroxyethyl)benzamide] gave an IC50 of 100 to 1000 nM.

As to `NC(=O)Cn1c(=O)c2c(nc(-c3ccccc3Cl)n2-c2ccc(Cl)cc2)n(CC2(F)CCOCC2)c1=O` [Compound 157], the half-inhibitory concentration (IC50) is under 100 nM. Under `CC(=O)N1CCC(Cn2c(=O)n(CC(N)=O)c(=O)c3c2nc(-c2ccccc2Cl)n3-c2ccc(Cl)cc2)CC1` [Compound 123, 2-[3-[(1-acetylpiperidin-4-yl)methyl]-8-(2-chlorophenyl)-7-(4-chlorophenyl)-2,6-dioxopurin-1-yl]acetamide] stands 100 to 1000 nM; under `C[C@H](Cn1c(=O)c2c(nc(-c3ccccc3Cl)n2-c2ccc(Cl)cc2)n(CC2CCS(=O)(=O)CC2)c1=O)C(N)=O` [Compound 175], under 100 nM; under `Cn1c(=O)c2c(nc(-c3ccccc3Cl)n2-c2ccc(Cl)cc2)n(Cc2ccc(C(=O)NCC(C)(C)O)cn2)c1=O` [Compound 166], under 100 nM.

Molecule `NC(=O)Cn1c(=O)c2c(nc(-c3ccc(F)cc3Cl)n2-c2ccc(Cl)cc2)n(CC2CCS(=O)(=O)CC2)c1=O` [Compound 173] had a half-inhibitory concentration (IC50) of under 100 nM.
